The values below come from patent US9718817B2, “Aryl and heteroaryl ether compounds as ROR gamma modulators” (Glenmark Pharmaceuticals S.A., priority 2014, dated 2017).

pIC50: −log10 of the molar value. Where only a bound is given, the exact number is not on record here.

One may read the pIC50 as the IC50 on a negative log10 scale, so that one unit is a factor of ten. For orientation: inhibition means the share of the control response that was lost under treatment.

This test has as its target T1, GST-tagged ROR gamma ligand binding domain (LBD) (Homo sapiens, UniProt P51449).
T1 construct: purchased Invitrogen
T1 sequence (P51449 269-508 limits assumed): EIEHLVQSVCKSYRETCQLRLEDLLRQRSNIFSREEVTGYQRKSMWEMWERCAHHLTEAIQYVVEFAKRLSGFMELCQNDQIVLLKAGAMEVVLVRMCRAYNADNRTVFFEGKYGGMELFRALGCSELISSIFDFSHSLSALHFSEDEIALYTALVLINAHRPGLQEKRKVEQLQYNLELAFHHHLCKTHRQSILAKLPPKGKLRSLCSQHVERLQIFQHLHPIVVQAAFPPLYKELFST
The experiment in a line: TR-FRET assay for ROR gamma (LanthaScreen co-activator peptide recruitment). The test is classed as biochemical. As to conditions: for pIC50: class symbols, from dose response curve; for inhibition at 1 µM: compound 1 μM; for inhibition at 1 µM / inhibition at 10 µM: TR-FRET ratio 520/495, percent of control; for inhibition at 10 µM: compound 10 μM. The gist of the method:
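Antagonist mode: 10 nM GST-RORγ LBD pre-incubated with compound 1 h at 22 °C in 25 mM HEPES pH 7.4, 100 mM NaCl, 5 mM DTT, 0.01% BSA, 4% DMSO final. Then 300 nM fluorescein-D22 co-activator peptide plus 10 nM Tb-anti-GST added, 1 h at room temperature. IC50 by nonlinear regression of the 520/495 TR-FRET ratio as percent of no-compound control.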
For orientation: Time-resolved FRET reads energy transfer from a long-lived donor to a nearby acceptor.

On to `CCS(=O)(=O)c1ccc(CC(=O)Nc2ccc(C#CC(C)(C)Oc3c(F)cc(F)cc3F)cc2)cc1` [Example 73, 2-(4-Ethanesulfonyl-phenyl)-N-{4-[3-methyl-3-(2,4,6-trifluoro-phenoxy)-but-1-yn-1-yl]-phenyl}-acetamide], for which the pIC50 is > 7.30, the inhibition at 1 µM is 75.4% and the inhibition at 10 µM worked out at 78.6%.
The corresponding values for `CCS(=O)(=O)c1ccc(CC(=O)Nc2ccc(C#CC(C)(C)Oc3cc(F)c(F)cc3F)cc2)cc1` [Example 74, 2-(4-Ethanesulfonyl-phenyl)-N-{4-[3-methyl-3-(2,4,5-trifluoro-phenoxy)-but-1-yn-1-yl]-phenyl}-acetamide] are > 7.30, 73.6% and 78.8%.
Taken in the same sequence, the figures for `CCS(=O)(=O)c1ccc(CC(=O)Nc2ccc(C#CC(C)(C)Oc3c(F)cc(Cl)cc3F)cc2)cc1` [Example 75, N-{4-[3-(4-Chloro-2,6-difluoro-phenoxy)-3-methyl-but-1-yn-1-yl]-phenyl}-2-(4-ethanesulfonyl-phenyl)-acetamide] were > 7.30, 83.2% and 84%.
For `CCS(=O)(=O)c1ccc(CC(=O)Nc2ccc(C#CC(C)(C)Oc3ccc(C(F)(F)F)cc3)cc2)cc1` [Example 76, 2-(4-Ethanesulfonyl-phenyl)-N-{4-[3-methyl-3-(4-trifluoromethyl-phenoxy)-but-1-yn-1-yl]-phenyl}-acetamide], the pIC50 is > 7.30, the inhibition at 1 µM stood at 82.2% and the inhibition at 10 µM was found to be 86.2%.
As for `CCS(=O)(=O)c1ccc(CC(=O)Nc2ccc(C#CC(C)(C)Oc3ccc(OC(F)(F)F)cc3)cc2)cc1` [Example 77, 2-(4-Ethanesulfonyl-phenyl)-N-{4-[3-methyl-3-(4-trifluoromethoxy-phenoxy)-but-1-yn-1-yl]-phenyl}-acetamide], the pIC50 was > 7.30, the inhibition at 1 µM came to 82.8% and the inhibition at 10 µM turned out to be 87.1%.
On to `CCS(=O)(=O)c1ccc(CC(=O)Nc2ccc(C#CC(C)(C)Oc3ccc(OC(F)F)cc3)cc2)cc1` [Example 78, N-{4-[3-(4-Difluoromethoxy-phenoxy)-3-methyl-but-1-yn-1-yl]-phenyl}-2-(4-ethanesulfonyl-phenyl)-acetamide], for which the pIC50 is > 7.30, the inhibition at 1 µM was determined as 85.2% and the inhibition at 10 µM is 87.4%.
With `CCS(=O)(=O)c1ccc(CC(=O)Nc2ccc(C#CC(C)(C)Oc3ccc(C#N)cc3)cc2)cc1` [Example 79, N-{4-[3-(4-Cyano-phenoxy)-3-methyl-but-1-yn-1-yl]-phenyl}-2-(4-ethanesulfonyl-phenyl)-acetamide], the pIC50 is > 7.30, the inhibition at 1 µM was 79.9% and the inhibition at 10 µM amounted to 86.1%.
For the compound `CCS(=O)(=O)c1ccc(CC(=O)Nc2ccc(C#CC(C)(C)Oc3ccc(Cl)cc3F)nc2)cc1` [Example 80, N-{6-[3-(4-Chloro-2-fluoro-phenoxy)-3-methyl-but-1-yn-1-yl]-pyridin-3-yl}-2-(4-ethanesulfonyl-phenyl)-acetamide], the inhibition at 1 µM came to 50.2% and the inhibition at 10 µM was found to be 62.4%.
As to `CCS(=O)(=O)c1ccc(CC(=O)Nc2ccc3c(c2)nc(C(C)(C)Oc2ccc(C(F)(F)F)cc2)n3C)cc1` [Example 81, 2-[4-(Ethylsulfonyl)phenyl]-N-(1-methyl-2-{2-[4-(trifluoromethyl)phenoxy]propan-2-yl}-1H-benzimidazol-5-yl)acetamide], the negative-log IC50 (pIC50) is < 7.00, the inhibition at 1 µM is 76% and the inhibition at 10 µM turned out to be 88.9%.
The corresponding values for `CCS(=O)(=O)c1ccc(CC(=O)Nc2ccc3c(c2)nc(C(C)(C)Oc2ccc(F)c(F)c2)n3C)cc1` [Example 82, N-{2-[2-(3,4-Difluorophenoxy)propan-2-yl]-1-methyl-1H-benzimidazol-5-yl}-2-[4-(ethylsulfonyl)phenyl]acetamide] are 7.00 to 7.30, 82% and 88.4%.
As for `CCS(=O)(=O)c1ccc(CC(=O)Nc2ccc3c(c2)nc(C(C)(C)Oc2ccc(Cl)cc2F)n3C)cc1` [Example 83, N-{2-[1-(4-Chloro-2-fluoro-phenoxy)-1-methyl-ethyl]-1-methyl-1H-benzoimidazol-5-yl}-2-(4-ethanesulfonyl-phenyl)-acetamide], the pIC50 was 7.00 to 7.30, the inhibition at 1 µM was determined as 83.3% and the inhibition at 10 µM was determined as 92%.
The corresponding values for `CCS(=O)(=O)c1ccc(CC(=O)Nc2ccc3c(c2)nc(C(C)(C)Oc2ccc(Cl)cc2Cl)n3C)cc1` [Example 84, N-{2-[2-(2,4-Dichlorophenoxy)propan-2-yl]-1-methyl-1H-benzimidazol-5-yl}-2-[4-(ethylsulfonyl)phenyl]acetamide] are > 7.30, 89.7% and 90.2%.
The corresponding values for `CCS(=O)(=O)c1ccc(CC(=O)Nc2ccc3c(c2)nc(C(C)(C)Oc2ccc(Cl)c(Cl)c2)n3C)cc1` [Example 85, N-{2-[2-(3,4-Dichlorophenoxy)propan-2-yl]-1-methyl-1H-benzimidazol-5-yl}-2-[4-(ethylsulfonyl)phenyl]acetamide] are > 7.30, 87.1% and 91.2%.
On to `CCn1c(C(C)(C)Oc2ccc(Cl)cc2F)nc2cc(NC(=O)Cc3ccc(S(=O)(=O)CC)cc3)ccc21` [Example 86, N-{2-[2-(4-Chloro-2-fluorophenoxy)propan-2-yl]-1-ethyl-1H-benzimidazol-5-yl}-2-[4-(ethylsulfonyl)phenyl]acetamide], for which the pIC50 is > 7.30, the inhibition at 1 µM was determined as 92.8% and the inhibition at 10 µM is 93.8%.
The corresponding values for `CCn1c(C(C)(C)Oc2ccc(Cl)c(F)c2)nc2cc(NC(=O)Cc3ccc(S(=O)(=O)CC)cc3)ccc21` [Example 87, N-{2-[1-(4-Chloro-3-fluoro-phenoxy)-1-methyl-ethyl]-1-ethyl-1H-benzoimidazol-5-yl}-2-(4-ethanesulfonyl-phenyl)-acetamide] are > 7.30, 90.8% and 94.8%.
Taken in the same sequence, the figures for `CCn1c(C(C)(C)Oc2ccc(F)cc2F)nc2cc(NC(=O)Cc3ccc(S(=O)(=O)CC)cc3)ccc21` [Example 88, N-{2-[1-(2,4-Difluoro-phenoxy)-1-methyl-ethyl]-1-ethyl-1H-benzoimidazol-5-yl}-2-(4-ethanesulfonyl-phenyl)-acetamide] were > 7.30, 86.2% and 96.1%.
The corresponding values for `CCn1c(C(C)(C)Oc2ccc(F)c(F)c2)nc2cc(NC(=O)Cc3ccc(S(=O)(=O)CC)cc3)ccc21` [Example 89, N-{2-[1-(3,4-Difluoro-phenoxy)-1-methyl-ethyl]-1-ethyl-1H-benzoimidazol-5-yl}-2-(4-ethanesulfonyl-phenyl)-acetamide] are > 7.30, 86.5% and 95.5%.
In the case of `CCn1c(C(C)(C)Oc2c(F)cc(F)cc2F)nc2cc(NC(=O)Cc3ccc(S(=O)(=O)CC)cc3)ccc21` [Example 90, 2-(4-Ethanesulfonyl-phenyl)-N-{1-ethyl-2-[1-methyl-1-(2,4,6-trifluoro-phenoxy)-ethyl]-1H-benzoimidazol-5-yl}-acetamide], the pIC50 was > 7.30, the inhibition at 1 µM turned out to be 87.3% and the inhibition at 10 µM was 88.8%.
The corresponding values for `CCn1c(C(C)(C)Oc2ccc(F)c(F)c2F)nc2cc(NC(=O)Cc3ccc(S(=O)(=O)CC)cc3)ccc21` [Example 91, 2-(4-Ethanesulfonyl-phenyl)-N-{1-ethyl-2-[1-methyl-1-(2,3,4-trifluoro-phenoxy)-ethyl]-1H-benzoimidazol-5-yl}-acetamide] are > 7.30, 90% and 90.6%.
The corresponding values for `CCn1c(C(C)(C)Oc2cc(F)c(F)cc2F)nc2cc(NC(=O)Cc3ccc(S(=O)(=O)CC)cc3)ccc21` [Example 92, 2-(4-Ethanesulfonyl-phenyl)-N-{1-ethyl-2-[1-methyl-1-(2,4,5-trifluoro-phenoxy)-ethyl]-1H-benzoimidazol-5-yl}-acetamide] are > 7.30, 91.5% and 93.1%.
Taken in the same sequence, the figures for `CCn1c(C(C)(C)Oc2ccc(Cl)cc2)nc2cc(NC(=O)Cc3ccc(S(=O)(=O)CC)cc3)ccc21` [Example 93, N-{2-[1-(4-Chloro-phenoxy)-1-methyl-ethyl]-1-ethyl-1H-benzoimidazol-5-yl}-2-(4-ethanesulfonyl-phenyl)-acetamide] were > 7.30, 83.4% and 87.4%.
Consider `CCn1c(C(C)(C)Oc2ccc(Cl)cn2)nc2cc(NC(=O)Cc3ccc(S(=O)(=O)CC)cc3)ccc21` [Example 94, N-{2-[1-(5-Chloro-pyridin-2-yloxy)-1-methyl-ethyl]-1-ethyl-1H-benzoimidazol-5-yl}-2-(4-ethanesulfonyl-phenyl)-acetamide], for which the pIC50 is < 7.00, the inhibition at 1 µM was 78% and the inhibition at 10 µM came out at 90.1%.
